In PubChem BioAssay (NCI):
Where “and” joins values, the source holds several entries; their conditions need not be identical. Identical values can stand only once.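 All cell lines were grown in 96-well plates and treated with compound for 48 hours. GI50 marks 50% less growth. TGI: total growth inhibition.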

Key:
Assay in all cases: inhibition of tumour cell growth, NCI panel, 48 h
HCC-2998 colon = test system: HCC-2998 colon
HOP-92 NSCLC = test system: HOP-92 NSCLC
HT29 colon = test system: HT29 colon
MALME-3M melanoma = test system: MALME-3M melanoma
SF-295 CNS = test system: SF-295 CNS
SW-620 colon = test system: SW-620 colon
DU-145 prostate = test system: DU-145 prostate
HCT-116 colon = test system: HCT-116 colon
MCF7 breast = test system: MCF7 breast
SK-MEL-28 melanoma = test system: SK-MEL-28 melanoma

Structure (SMILES) | TGI (HCC-2998 colon) | TGI (HOP-92 NSCLC) | TGI (HT29 colon) | TGI (MALME-3M melanoma) | TGI (SF-295 CNS) | TGI (SW-620 colon) | TGI (DU-145 prostate) | TGI (HCT-116 colon) | TGI (MCF7 breast) | TGI (SK-MEL-28 melanoma) | GI50 (HOP-92 NSCLC) | GI50 (MCF7 breast) | GI50 (HCC-2998 colon) | GI50 (HCT-116 colon) | GI50 (SK-MEL-28 melanoma)
COc1cc2c(c(OC)c1OC)-c1ccc(SC)c(=O)cc1[C@@H](NCc1ccc([N+](=O)[O-])cc1)CC2 | 0.0105 µM | > 100 µM | 0.011 µM | > 100 µM | > 100 µM | > 100 µM | – | – | – | – | – | – | – | – | –
CC1CCC2(OC1)OC1C(O)C3C4CCC5CC(OC6OC(CO)C(OC7OC(CO)C(O)C(OC8OCC(O)C(O)C8O)C7OC7OC(CO)C(O)C(OC8OC(CO)C(O)C(O)C8O)C7O)C(O)C6O)C(O)CC5(C)C4CCC3(C)C1C2C (stereo not given) | 4.69 µM | 26.5 µM | 11.8 µM | – | 3.66 µM | 98.4 µM | 4.63 µM | 3.36 µM | 4.78 µM | > 100 µM | – | – | – | – | –
CCN(CC)C(=O)Cn1c2c(c3ccccc31)CCCC2 | > 100 µM | > 100 µM | > 100 µM | > 100 µM | > 100 µM | > 100 µM | – | > 100 µM | > 100 µM | > 100 µM | – | – | – | – | –
Oc1ccc(Oc2cc3c(cc2Oc2ccc(O)cc2)-c2nc-3nc3[nH]c(nc4nc(nc5[nH]c(n2)c2cc(Oc6ccc(O)cc6)c(Oc6ccc(O)cc6)cc52)-c2cc(Oc5ccc(O)cc5)c(Oc5ccc(O)cc5)cc2-4)c2cc(Oc4ccc(O)cc4)c(Oc4ccc(O)cc4)cc32)cc1 | > 100 µM | > 100 µM | > 100 µM | 47 µM | 95.6 µM | > 100 µM | – | > 100 µM | > 100 µM | > 100 µM | – | – | – | – | –
CCCCCCCCC#CCCCCCCCCCC[C@@H]1C(=O)O[C@H](C)[C@@H]1O (tested in a mixture with another compound) | > 100 µM | 25.1 µM | – | 44 µM | 65.4 µM | 36.4 µM | – | > 100 µM | 50.5 µM | > 100 µM | – | – | – | – | –
Cc1c2cccc-2ccc2c3ccccc3n(C(=O)c3ccc(Cl)cc3)c12 | – | > 100 µM | > 100 µM | > 100 µM | > 100 µM | > 100 µM | > 100 µM | > 100 µM | > 100 µM | > 100 µM | – | – | – | – | –
O=C(O)c1ccccc1C1c2ccccc2Oc2ccccc21 | – | 77.5 µM | > 100 µM | > 100 µM | > 100 µM | > 100 µM | > 100 µM | > 100 µM | – | > 100 µM | – | – | – | – | –
O=C(c1ccc(Cl)cc1)N1CCN=C1c1cc2ccccc2c2ccccc12 | – | 26.3 µM | 30 µM | 32.5 µM | 30.5 µM | 32.2 µM | 38.4 µM | 28.1 µM | 34.2 µM | 29.7 µM | – | – | – | – | –
CCOC(=O)C1=C(O)c2ccc(C)cc2C(=O)C1=O | > 100 µM | > 100 µM | > 100 µM | > 100 µM | > 100 µM | > 100 µM | – | > 100 µM | – | > 100 µM | – | – | – | – | –
COc1nc(C#CC2CCCCC2)nc(OC)n1 | – | – | > 100 µM | 6.49 µM | 18 µM | 15.6 µM | 14.6 µM | 10.2 µM | 14.9 µM | 32.8 µM | – | – | – | – | –
CSc1cnc2ccccc2c1Sc1c[nH]c2ccccc2c1=O | 29.5 µM | 29.7 µM | 15.1 µM | 37.6 µM | > 46.7 µM | > 32.3 µM | – | 28.7 µM | – | 43.5 µM | – | – | – | – | –
O=C(N=Nc1ccccc1Cl)NNc1ccccc1Cl | 94.1 µM | – | > 100 µM | > 100 µM | – | > 100 µM | > 100 µM | > 100 µM | – | > 100 µM | – | – | – | – | –
CCN(CC)CC1CCCCN1CC(=O)N1CC(C)C(=O)Nc2ccccc21 (stereo not given) | > 100 µM | > 100 µM | > 100 µM | > 100 µM | > 100 µM | > 100 µM | – | > 100 µM | – | > 100 µM | – | – | – | – | –
CC1(C)CC[C@]2(C(=O)O)CC[C@]3(C)[C@H](C(=O)C=C4[C@@]5(C)C=C(C#N)C(=O)C(C)(C)[C@@H]5CC[C@]43C)[C@@H]2C1 | – | 8.16 µM | 6.43 µM | 1.55 µM | 1.97 µM | 2.42 µM | 2.39 µM | 4.76 µM | 5.14 µM | 2.35 µM | – | – | – | – | –
O=[Se](O)O | > 100 µM | – | > 91.8 µM | > 100 µM | 1.7 µM | > 100 µM | 10.8 µM | 15.6 µM | > 100 µM | 26.8 µM | – | – | – | – | –
Cn1c(=O)sc2cc(C(=S)N3CCCCC3)ccc21 | – | – | > 100 µM | 55.4 µM | > 100 µM | > 100 µM | > 100 µM | > 100 µM | > 100 µM | > 100 µM | – | – | – | – | –
Oc1ccc(-c2nc3ccccc3s2)cc1 | – | > 100 µM | > 100 µM | > 100 µM | > 100 µM | > 100 µM | > 100 µM | 74.9 µM | > 100 µM | > 100 µM | – | – | – | – | –
[N-]=[N+]=NCC(O)Cn1cnc2c(NC(=O)c3ccccc3)ncnc21 (stereo not given) | > 100 µM | > 100 µM | > 100 µM | > 100 µM | > 100 µM | > 100 µM | – | > 100 µM | – | > 100 µM | – | – | – | – | –

Structure (SMILES) | TGI (HCC-2998 colon) | TGI (HOP-92 NSCLC) | TGI (HT29 colon) | TGI (MALME-3M melanoma) | TGI (SF-295 CNS) | TGI (SW-620 colon) | TGI (DU-145 prostate) | TGI (HCT-116 colon) | TGI (MCF7 breast) | TGI (SK-MEL-28 melanoma) | GI50 (HOP-92 NSCLC) | GI50 (MCF7 breast) | GI50 (HCC-2998 colon) | GI50 (HCT-116 colon) | GI50 (SK-MEL-28 melanoma)
N/C(=N\N=C\c1ncccc1O)NO | > 100 µM | > 100 µM | > 100 µM | > 100 µM | > 77.8 µM | > 100 µM | – | > 100 µM | > 100 µM | > 100 µM | – | – | – | – | –
C=C1C(C)C2C(Cc3ccccc3)NC(=O)C23OC(=O)/C=C\CC(=O)CCC(C)C/C=C/C3C1O (stereo not given) | 18.5 µM | 2.1 µM | 11.1 µM | 5.18 µM | 13.9 µM | 3.82 µM | – | 7.35 µM | 5.1 µM | 3.92 µM | 0.345 µM | 0.695 µM and 1.39 µM | – | – | –
COc1cc(N(CCC#N)CCC#N)ccc1/C=N\NC(=O)c1ccc(C)cc1 | – | > 100 µM | > 100 µM | > 100 µM | > 100 µM | > 100 µM | > 100 µM | > 100 µM | – | > 100 µM | – | – | – | – | –
CCOC(=O)CCC(C(=O)OCC)n1nnc2cc(Nc3c(C)[n+]([O-])c4cc(F)c(OCC)cc4[n+]3[O-])ccc21 (stereo not given) | – | 88.8 µM | > 100 µM | > 100 µM | > 100 µM | > 100 µM | > 100 µM | > 100 µM | > 100 µM | – | – | – | – | – | –
Cc1c2ccncc2c(C)c2c1[nH]c1ccc(OCCN(C)C)cc12 | 0.656 µM | 1.62 µM | 1.24 µM | 2.96 µM | 0.505 µM | 0.406 µM | – | 0.256 µM | 0.785 µM | 2.01 µM | – | – | – | – | –
COc1ccc(C(=O)/C=C/c2cc(-c3cc(OC)c(OC)c(OC)c3)n[nH]2)cc1 | 3.4 µM | – | – | – | – | – | – | 5.86 µM | 2.96 µM | 4.42 µM | – | 1.15 µM | 1.78 µM | 1.73 µM | 2.12 µM
COC(=O)Cn1cnc2c(Cl)nc(Nc3ccccc3)nc21 | 82.8 µM | – | > 100 µM | > 100 µM | > 100 µM | > 100 µM | – | > 100 µM | > 100 µM | > 100 µM | – | – | – | – | –
O=C(O)/C=C\C(=O)Nn1c(Cc2ccc(Cl)cc2)n[nH]c1=O | > 100 µM | – | > 100 µM | > 100 µM | > 100 µM | – | > 100 µM | > 100 µM | > 100 µM | – | – | – | – | – | –
S=C1SC(=Nc2ccccc2)C(=Nc2ccccc2)N1c1ccc2ccccc2c1 | > 100 µM | – | – | > 100 µM | > 100 µM | – | > 100 µM | > 100 µM | > 100 µM | > 100 µM | – | – | – | – | –
Cc1nc(Nc2ccccc2Cl)sc1C(=O)CC(=O)C(N)=O | > 100 µM | > 100 µM | > 100 µM | – | > 100 µM | > 100 µM | > 100 µM | > 100 µM | > 100 µM | – | – | – | – | – | –
COC(=O)Nc1nc2ccc(NC(=O)c3ccc(I)cc3)cc2[nH]1 | – | > 100 µM | > 100 µM | > 100 µM | > 100 µM | > 100 µM | > 100 µM | > 100 µM | > 100 µM | > 100 µM | – | – | – | – | –
O=c1c2ccccc2nc2ccc3c(Cl)[nH][nH]c3c12 | > 100 µM | > 100 µM | > 100 µM | 77.3 µM | > 100 µM | > 100 µM | – | > 100 µM | – | > 100 µM | – | – | – | – | –
O=c1[nH]c(=O)n(C2OC(CO)C(O)C2O)cc1OCCCc1ccccc1 (stereo not given) | > 100 µM | – | > 100 µM | > 100 µM | > 100 µM | > 100 µM | > 100 µM | > 100 µM | > 100 µM | > 100 µM | – | – | – | – | –
NC(=S)NC/C=C/Cl | – | > 100 µM | > 100 µM | > 100 µM | > 100 µM | > 100 µM | > 100 µM | > 100 µM | > 100 µM | – | – | – | – | – | –
COc1ccc(Oc2ccccc2N)cc1 | 57.1 µM | > 100 µM | > 100 µM | > 100 µM | > 100 µM | > 100 µM | – | > 100 µM | – | 95.1 µM | – | – | – | – | –
O=C1NC(Cc2ccc(O)cc2)C(=O)NC1Cc1ccc(O)cc1 (stereo not given) | – | > 100 µM | > 100 µM | > 100 µM | > 100 µM | > 100 µM | > 100 µM | > 100 µM | > 100 µM | > 100 µM | – | – | – | – | –
C#CCOC(=O)c1ccc(OC(C)=O)cc1 | > 100 µM | > 100 µM | – | – | > 100 µM | > 100 µM | > 100 µM | > 100 µM | > 100 µM | – | – | – | – | – | –
